Drawing on patent US9862707B2, “TrkA kinase inhibitors, compositions and methods thereof” (Merck Sharp & Dohme Corp., priority 2014, dated 2018), this text covers IC50 for 29 compounds.

In the test the target is human TrkA receptor (Homo sapiens (Human), UniProt P04629). In words: TrkA functional activity, DiscoverX PathHunter assay. It is filed as cell-based. The following applies: U2OS cells expressing human TrkA-PK, Shc1-EA and p75NTR; compound 1 h, then NGF at ~80% of maximal response for 3 h; luminescence.
Chain of human TrkA receptor (P04629 33-796): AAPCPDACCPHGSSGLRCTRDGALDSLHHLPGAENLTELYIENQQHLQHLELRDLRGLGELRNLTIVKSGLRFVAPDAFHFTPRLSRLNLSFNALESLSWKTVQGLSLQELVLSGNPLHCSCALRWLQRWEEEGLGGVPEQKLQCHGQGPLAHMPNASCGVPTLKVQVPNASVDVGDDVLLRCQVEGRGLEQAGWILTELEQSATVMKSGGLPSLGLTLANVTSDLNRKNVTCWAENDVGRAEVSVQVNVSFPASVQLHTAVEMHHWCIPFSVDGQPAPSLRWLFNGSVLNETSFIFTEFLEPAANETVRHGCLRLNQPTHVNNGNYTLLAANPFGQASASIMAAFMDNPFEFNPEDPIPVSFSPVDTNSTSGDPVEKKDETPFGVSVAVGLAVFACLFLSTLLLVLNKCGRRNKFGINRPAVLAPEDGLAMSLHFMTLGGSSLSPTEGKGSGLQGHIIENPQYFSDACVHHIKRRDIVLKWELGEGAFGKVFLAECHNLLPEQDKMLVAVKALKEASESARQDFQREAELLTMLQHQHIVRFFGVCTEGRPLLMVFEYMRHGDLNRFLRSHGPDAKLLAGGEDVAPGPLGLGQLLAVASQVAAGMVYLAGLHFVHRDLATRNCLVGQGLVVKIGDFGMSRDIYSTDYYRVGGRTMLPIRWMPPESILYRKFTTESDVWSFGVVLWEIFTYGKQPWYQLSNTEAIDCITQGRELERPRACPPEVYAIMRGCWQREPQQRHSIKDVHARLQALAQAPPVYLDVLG
Description: TrkA functional activity was measured using a DiscoverX PathHunter assay. In this assay, U2OS cells express the human TrkA receptor as a fusion with the weakly complementing fragment of B-galactosidase, which DiscoverX calls “Prolink (PK)”; additionally, Shc1 is fused with a larger fragment, which is called “Enzyme Acceptor (EA)”. Activation of the TrkA receptor, upon NGF addition, results in the kinase domain being phosphorylated, resulting in subsequent recruitment of Shc1-EA protein. That recruitment results in an active B-galactosidase enzyme that is detected by addition of a chemiluminescent substrate. The human p75^NTR protein was also expressed as a co-receptor for NGF.
All reagents were purchased from DiscoverX, except for the receptor agonists (NGF, BDNF, NT3) which were purchased from Peprotech. Cells were expanded and frozen into cryovials, and stored in the vapor phase of liquid nitrogen, and thawed immediately before use. Thawed cells were added to a 384-well plate at 7500 cells/well, and allowed to incubate overnight. Compound at various concentrations was added the following morning and allowed to incubate on cells for 1 h. Then, NGF was added at a concentration sufficient to elicit ˜80% of a maximal response and allowed to incubate for 3 h at ambient temperature. DiscoverX PathHunter detection reagent was then added and the plate was further incubated for 1 h in the dark. The plate was then read via luminescence on the Perkin Elmer Envision.
`CC(O)c1cnc2c(NC(=O)c3cc(-c4ncccn4)c(C(F)(F)F)cc3Cl)n(-c3ccccc3)nc2c1` (single isomer, unassigned; isomer b) [Compound 36, (R or S)-2-chloro-N-[6-(1-hydroxyethyl)-2-phenyl-2H-pyrazolo[4,3-b]pyridin-3-yl]-5-pyrimidin-2-yl-4-(trifluoromethyl)benzamide, isomer B]: the midpoint of inhibition, the IC50, lay at 2.4 nM.
As for `CC(O)c1ccc2c(NC(=O)c3cc(-c4ncccn4)c(C(F)(F)F)cc3Cl)n(-c3ccccc3)nc2c1` (single isomer, unassigned; isomer b) [Compound 38, (R or S)-2-chloro-N-[6-(1-hydroxyethyl)-2-phenyl-2H-indazol-3-yl]-5-pyrimidin-2-yl-4-(trifluoromethyl)benzamide, isomer B], the figure is 4.9 nM; as for `O=C(Nc1c2ccc(C(O)C(F)F)cc2nn1-c1ccccc1)c1cc(-c2ncccn2)c(C(F)(F)F)cc1F` (single isomer, unassigned; isomer b) [Compound 57, (R or S)-N-[6-(2,2-difluoro-1-hydroxyethyl)-2-phenyl-2H-indazol-3-yl]-2-fluoro-5-pyrimidin-2-yl-4-(trifluoromethyl)benzamide, isomer B], 13 nM.
For `O=C(Nc1c2cc(C(O)C(F)F)ccc2nn1-c1ccccc1)c1cc(-c2ncccn2)c(C(F)(F)F)cc1F` (single isomer, unassigned; isomer b) [Compound 59, (R or S)-N[5-(2,2-difluoro-1-hydroxyethyl)-2-phenyl-2H-indazol-3-yl]-2-fluoro-5-pyrimidin-2-yl-4-(trifluoromethyl)benzamide, isomer B] the value was 4.9 nM; for `O=C(Nc1c2ncc(C(O)CO)cc2nn1-c1ccccc1)c1cc(-c2ncccn2)c(C(F)(F)F)cc1Cl` (single isomer, unassigned; isomer b) [Compound 65, (R or S)-2-chloro-N-[6-(1,2-dihydroxyethyl)-2-phenyl-2H-pyrazolo[4,3-b]pyridin-3-yl]-5-pyrimidin-2-yl-4-(trifluoromethyl)benzamide, isomer B], 29 nM; for `O=C(Nc1c2ncccc2nn1-c1ccccc1)c1cc(-c2ncccn2)c(C(F)(F)F)cc1F` [Compound 1, 2-Fluoro-N-(2-phenyl-2H-pyrazolo[4,3-b]pyridin-3-yl)-5-pyrimidin-2-yl-4-(trifluoromethyl)benzamide], 5.2 nM.
As for `O=C(Nc1c2[nH]c(=O)ccc2nn1-c1ccccc1)c1cc(-c2ncccn2)c(C(F)(F)F)cc1F` [Compound 2, 2-Fluoro-N-(5-oxo-2-phenyl-4,5-dihydro-2H-pyrazolo[4,3-b]pyridin-3-yl)-5-(pyrimidin-2-yl)-4-(trifluoromethyl)benzamide], the figure is 6 nM; as for `O=C(Nc1c2ncccc2nn1-c1cccc(CO)c1)c1cc(-c2ncccn2)c(C(F)(F)F)cc1F` [Compound 3, 2-Fluoro-N-(2-(3-(hydroxymethyl)phenyl)-2H-pyrazolo[4,3-b]pyridin-3-yl)-5-(pyrimidin-2-yl)-4-(trifluoromethyl)benzamide], 122 nM; as for `Cn1ccc(-c2cc(C(=O)Nc3c4cc(C#N)ccc4nn3-c3ccccc3)ccc2C(F)(F)F)n1` [Compound 4, N-(5-cyano-2-phenyl-2H-indazol-3-yl)-3-(1-methyl-1H-pyrazol-3-yl)-4-(trifluoromethyl)benzamide], 8.8 nM.
Turning to `Cn1ccc(-c2cc(C(=O)Nc3c4ncccc4nn3-c3ccccc3)c(F)cc2C(F)(F)F)n1` [Compound 5, 2-fluoro-5-(1-methyl-1H-pyrazol-3-yl)-N-(2-phenyl-2H-pyrazolo[4,3-b]pyridin-3-yl)-4-(trifluoromethyl)benzamide], the IC50 (in general, the concentration needed to halve the response being measured) came to 0.66 nM.
As for `Cn1ccc(-c2cc(C(=O)Nc3c4cccnc4nn3-c3ccccc3)c(F)cc2C(F)(F)F)n1` [Compound 6, 2-fluoro-5-(1-methyl-1H-pyrazol-3-yl)-N-(2-phenyl-2H-pyrazolo[3,4-b]pyridin-3-yl)-4-(trifluoromethyl)benzamide], the figure is 6.1 nM.
As for `Cn1ccc(-c2cc(C(=O)Nc3c4cc(C(F)(F)F)ccc4nn3-c3ccccc3)c(F)cc2C(F)(F)F)n1` [Compound 7, 2-fluoro-5-(1-methyl-1H-pyrazol-3-yl)-N-[2-phenyl-5-(trifluoromethyl)-2H-indazol-3-yl]-4-(trifluoromethyl)benzamide], the figure is 29 nM.
The compound `COc1ccc2nn(-c3ccccc3)c(NC(=O)c3cc(-c4ncccn4)c(C(F)(F)F)cc3F)c2n1` [Compound 8, 2-fluoro-N-(5-methoxy-2-phenyl-2H-pyrazolo[4,3-b]pyridin-3-yl)-5-pyrimidin-2-yl-4-(trifluoromethyl)benzamide] had an IC50 of 18 nM.
As for `CC(=O)NCc1cccc(-n2nc3cccnc3c2NC(=O)c2cc(-c3ncccn3)c(C(F)(F)F)cc2F)c1` [Compound 9, N-(2-{3-[(acetylamino)methyl]phenyl}-2H-pyrazolo[4,3-b]pyridin-3-yl)-2-fluoro-5-pyrimidin-2-yl-4-(trifluoromethyl)benzamide], the figure is 744 nM; as for `Cn1ccc(-c2cc(C(=O)Nc3c4cc(CO)ccc4nn3-c3ccccc3)ccc2C(F)(F)F)n1` [Compound 10, N-(5-(Hydroxymethyl)-2-phenyl-2H-indazol-3-yl)-3-(1-methyl-1H-pyrazol-3-yl)-4-(trifluoromethyl)benzamide], 0.84 nM; as for `O=C(Nc1c2cc(CO)ncc2nn1-c1ccccc1)c1cc(-c2ncccn2)c(C(F)(F)F)cc1F` [Compound 11, 2-Fluoro-N-(5-(hydroxymethyl)-2-phenyl-2H-pyrazolo[3,4-c]pyridin-3-yl)-5-(pyrimidin-2-yl)-4-(trifluoromethyl)benzamide], 20 nM.
`O=C(Nc1c2cc(CO)ccc2nn1-c1ccccc1)c1cc(-c2ncccn2)c(C(F)(F)F)cc1F` [Compound 12, 2-fluoro-N-[5-(hydroxymethyl)-2-phenyl-2H-indazol-3-yl]-5-pyrimidin-2-yl-4-(trifluoromethyl)benzamide]: the IC50 stood at 2.6 nM.
For `O=C(Nc1c2ccc(CO)cc2nn1-c1ccccc1)c1cc(-c2ncccn2)c(C(F)(F)F)cc1F` [Compound 13, 2-fluoro-N-[6-(hydroxymethyl)-2-phenyl-2H-indazol-3-yl]-5-pyrimidin-2-yl-4-(trifluoromethyl)benzamide] the value was 3.8 nM; for `O=C(Nc1c2ccc(CO)cc2nn1-c1ccccc1)c1cc(-c2cc[nH]n2)c(C(F)(F)F)cc1F` [Compound 14, 2-fluoro-N-[6-(hydroxymethyl)-2-phenyl-2H-indazol-3-yl]-5-(1H-pyrazol-3-yl)-4-(trifluoromethyl)benzamide], 1.2 nM; for `Cc1cc(-n2nc3ccc(CO)cc3c2NC(=O)c2cc(-c3ncccn3)c(C(F)(F)F)cc2F)n[nH]1` [Compound 15, 2-fluoro-N-[5-(hydroxymethyl)-2-(5-methyl-1H-pyrazol-3-yl)-2H-indazol-3-yl]-5-pyrimidin-2-yl-4-(trifluoromethyl)benzamide], 74 nM.
For `O=C(Nc1c2ccc(CO)cc2nn1-c1ccccc1)c1cc(-c2ncccn2)c(C(F)(F)F)cc1Cl` [Compound 16, 2-chloro-N-[6-(hydroxymethyl)-2-phenyl-2H-indazol-3-yl]-5-pyrimidin-2-yl-4-(trifluoromethyl)benzamide] the value was 7.9 nM; for `O=C(Nc1c2nc(CO)ccc2nn1-c1ccccc1)c1cc(-c2ncccn2)c(C(F)(F)F)cc1Cl` [Compound 17, 2-chloro-N-[5-(hydroxymethyl)-2-phenyl-2H-pyrazolo[4,3-b]pyridin-3-yl]-5-pyrimidin-2-yl-4-(trifluoromethyl)benzamide], 18 nM; for `Cn1ccc(-c2cc(C(=O)Nc3c4cc(CO)ncc4nn3-c3ccccc3)c(F)cc2C(F)(F)F)n1` [Compound 18, 2-fluoro-N-[5-(hydroxymethyl)-2-phenyl-2H-pyrazolo[3,4-c]pyridin-3-yl)-5-(1-methyl-1H-pyrazol-3-yl)-4-(trifluoromethyl)benzamide], 1.9 nM.
`CC(C)(O)c1cnc2c(NC(=O)c3cc(-c4ncccn4)c(C(F)(F)F)cc3F)n(-c3ccccc3)nc2c1` [Compound 40, 2-Fluoro-N-(6-(2-hydroxypropan-2-yl)-2-phenyl-2H-pyrazolo[4,3-b]pyridin-3-yl)-5-(pyrimidin-2-yl)-4-(trifluoromethyl)benzamide] registered a 50% inhibitory concentration (IC50) of 3.9 nM.
`Cn1ccc(-c2cc(C(=O)Nc3c4ncc(C(C)(C)O)cc4nn3-c3ccccc3)c(F)cc2C(F)(F)F)n1` [Compound 41, 2-Fluoro-N-(6-(2-hydroxypropan-2-yl)-2-phenyl-2H-pyrazolo[4,3-b]pyridin-3-yl)-5-(1-methyl-1H-pyrazol-3-yl)-4-(trifluoromethyl)benzamide] displayed an IC50 of 0.16 nM.
As to `Cn1ccc(-c2cc(C(=O)Nc3c4nc(C(C)(C)O)ncc4nn3-c3ccccc3)c(F)cc2C(F)(F)F)n1` [Compound 43, 2-Fluoro-N-(5-(2-hydroxypropan-2-yl)-2-phenyl-2H-pyrazolo[4,3-d]pyrimidin-3-yl)-5-(1-methyl-1H-pyrazol-3-yl)-4-(trifluoromethyl)benzamide], the IC50 was 33 nM.
For the compound `CC(C)(O)c1cnc2nn(-c3ccccc3)c(NC(=O)c3cc(-c4ncccn4)c(C(F)(F)F)cc3F)c2c1` [Compound 45, 2-fluoro-N-[5-(1-hydroxy-1-methylethyl)-2-phenyl-2H-pyrazolo[3,4-b]pyridin-3-yl]-5-pyrimidin-2-yl-4-(trifluoromethyl)benzamide], it took 12 nM to reach half-maximal inhibition (IC50).
The compound `CC(C)(O)c1ccc2c(NC(=O)c3cc(-c4ncccn4)c(C(F)(F)F)cc3Cl)n(-c3ccccc3)nc2c1` [Compound 46, 2-chloro-N-[6-(1-hydroxy-1-methylethyl)-2-phenyl-2H-indazol-3-yl]-5-pyrimidin-2-yl-4-(trifluoromethyl)benzamide] returned an IC50 of 1.7 nM.
As for `CC(C)(O)c1cnc2c(NC(=O)c3cc(-c4cc[nH]n4)c(C(F)(F)F)cc3F)n(-c3ccccc3)nc2c1` [Compound 47, 2-fluoro-N-[6-(1-hydroxy-1-methylethyl)-2-phenyl-2H-pyrazolo[4,3-b]pyridin-3-yl]-5-(1H-pyrazol-3-yl)-4-(trifluoromethyl)benzamide], the figure is 2.6 nM.
